# Assay results as given in patent publication US11564911B2, “Small molecule dual-inhibitors of TRPV4 and TRPA1 for sanitizing and anesthetizing” (Duke University, priority 2016, dated 2023).
# Several values for one entry are separate records, joined by “and”; a condition that tells them apart may be missing. Equal entries are not always repeated.
# What was measured:
# [1] = test system: BL6 mice, whisker-pad injection of formalin; experiment: Formalin-evoked nocifensive behavior, compound pre-injected into the whiskerpad; assay type: in vivo, mouse; conditions: 0.5 mM/10 μL pre-injected into whiskerpad 15 min before formalin
# Protocol: Compounds were tested for their effect in reducing pain using an in vivo pain model in mice. For mouse formalin-evoked irritant behavior measurements, mice were well-fed, well-rested, and tested at the same time of day, at the same time-point of their circadian rhythm. They were allowed to acclimate to a plexiglas chamber for at least 30 min before testing, and received 10 μL subcutaneous injection of 4% of formalin (diluted from an aqueous solution of commercial 37% formaldehyde with normal saline (NS)) through a 30-gauge needle into the right whiskerpad, as further detailed in Luccarini et al. (J. Pain, 2006, 7, 908-914). Normal saline was used as control injection. After injection, mice were immediately placed back into the chamber and the rubbing behavior was recorded by a private consumer-type video-camera for a 45 min observation period. The recording time was divided into 9 blocks of 5 min, and a nociceptive score was determined per block by measuring the time that the animals spent rubbing the injected area predominantly with the ipsilateral fore-paw and rarely with hind-paw. This rubbing behavior with fore-paw is evoked by pain, which is distinct from itch behavior. Behavioral analysis was conducted by observers blinded to treatment.
# To investigate the effects of the specific compounds GSK205, 16-8, and 16-19 on formalin-induced nociceptive behavior, mice received a single subcutaneous injection of the compounds into the whiskerpad (10 μL, dissolved in 4% DMSO) 15 min before formalin injection. Control animals received the same volume of NS, 4% DMSO.
# TRPV2 = biological target: T1, TRPV2 (Mus musculus, UniProt Q9WTR1); experiment: Ca++ imaging in N2a cells over-expressing TRPV2; assay type: cell-based; conditions: 5 μM, mouse isoform in N2a cells
# T1 construct: expressed in transfected cells; host or cells: N2a cells, eGFP co-transfected
# Description: (§1) Mean±SEM is shown, ≥100 cells per condition. […] Plot generated from averaged peak ΔCa++ concentration of […] per data-point.
# TRPV1 = biological target: T2, TRPV1 (Mus musculus, UniProt Q704Y3); experiment: Ca++ imaging in N2a cells over-expressing TRPV1; assay type: cell-based; conditions: 5 μM, mouse isoform in N2a cells
# T2 construct: expressed in transfected cells; host or cells: N2a cells, eGFP co-transfected
# Description: as §1
# human TRPV2 = biological target: T3, human TRPV2 (Homo sapiens, UniProt Q9Y5S1); experiment: Ca2+ signal in N2a cells transfected with human TRPV2 (hypotonicity); assay type: cell-based; conditions: hypotonicity 260 mosmol/L
# T3 construct: expressed in transfected cells; host or cells: N2a cells
# Protocol: (§2) Compounds were tested for their effect on TRPV1, TRPV2, and TRPV3. Methods were similar to those described in Example 15. Briefly, N2a cells were transfected with human TRPV1, TRPV2, or TRPV3. eGFP-transfection was used as control. For specific stimulation of TRPV1, 5 μM capsaicin was used. For stimulation of TRPV2, hypotonicity (260 mosmol/L) was used, based on previous reports of TRPV2 being osmotically responsive. N2a cells were not responsive to hypotonicity, and neither were control-transfected cells. For TRPV3-expressing cells, camphor (20% of a commercially available stock solution) was used. […] Stimulation and control protocols were applied as for TRPA1-expressing N2a cells as detailed above in Example 15.
# [2] = Assessment of hepatic, renal and cardiac function in treated mice; assay type: in vivo, mouse; conditions: 10 mg/kg i.p., vs vehicle; for heart rate (EKG): over 1 h, at the 6 h time-point
# Protocol: Mice were treated i.p. with compounds 16-8 and 16-19 (10 mg/kg). Hepatic and renal integrity were analyzed by alanine amino-transferase- and creatinine assays (Sigma), both relying on measurement of absorbance at λ=570 nm in 96-well micro-titerplates. 8 technical replicates per animal were performed.
# For heart rate assessment in mice treated with 16-8 and 16-19, animals were fitted with two electrodes, one to the ear, via clip, one to the rib-cage, using firm adhesive. Heart rate was monitored and analyzed using axoscope and clampfit 9.2 software (Molecular Devices)
# human TRPV3 = biological target: T4, human TRPV3 (Homo sapiens, UniProt Q8NET8); experiment: Ca2+ signal in N2a cells transfected with human TRPV3 (camphor); assay type: cell-based; conditions: camphor stimulation
# T4 construct: expressed in transfected cells; host or cells: N2a cells
# Protocol: as §2
# TRPA1 (mouse) = biological target: T5, TRPA1 (mouse) (Mus musculus, UniProt Q8BLA8); experiment: Ca++ imaging in N2a cells with directed expression of TRPA1, mustard oil activation; assay type: cell-based; conditions: mouse TRPA1, 100 μM mustard oil, read-out: IC50, inhibition of TRPA1
# T5 construct: expressed in transfected cells; host or cells: N2a cells, eGFP co-transfected
# Description: as §1
# TRPV3 = biological target: T6, TRPV3 (Mus musculus, UniProt Q8K424); experiment: Ca++ imaging in N2a cells over-expressing TRPV3; assay type: cell-based; conditions: 5 μM, mouse isoform in N2a cells
# T6 construct: expressed in transfected cells; host or cells: N2a cells, eGFP co-transfected
# Description: as §1
# human TRPA1 = biological target: T7, human TRPA1 (Homo sapiens, UniProt O75762); experiment: Ca2+ transient in N2a cells transfected with human TRPA1, AITC activation; assay type: cell-based; conditions: GSK205: doses below or equaling 25 μM
# T7 construct: expressed in transfected cells; host or cells: N2a cells, co-transfected with eGFP plasmid
# Protocol: Compounds were tested for their effect on TRPA1. N2a permanent cells were transfected with human TRPA1 cDNA, using a pcDNA3.1 expression plasmid. They were co-transfected with eGFP-expressing plasmid, or, for control, with eGFP plasmid only.
# Cells were then pre-exposed to 5 μM of compounds 16-8 and 16-19 for 10 min.
# TRPV4 = TRPV4 (Homo sapiens, UniProt Q9HBA0); experiment: TRPV4-mediated calcium influx in N2a cells with targeted expression of human TRPV4; assay type: cell-based; set-up: expressed in transfected cells; host or cells: N2a cells; conditions: 2.5 μM inhibitor, pre-incubation 10 min, 10 nM GSK101
# TRPV4 (rat) = biological target: T8, TRPV4 (rat) (Rattus norvegicus, UniProt Q9ERZ8); experiment: Ca++ imaging in N2a cells with directed expression of TRPV4, activation with GSK101; assay type: cell-based; conditions: for IC50: N2a cells, rat TRPV4, 5 nM GSK101, averaged peak ΔCa++, read-out: IC50, inhibition of TRPV4-mediated Ca++ influx; for inhibition of TRPV4-mediated Ca++ influx, first round screening: inhibitor 5 μM, 5 nM GSK101
# T8 construct: expressed in transfected cells; host or cells: N2a (mouse neuroblastoma) cells
# Description: FIGS. 26A-26B: Assessment of compounds in N2a cells with directed expression of TRPV4. […] The number on each bar corresponds to average peak ΔCa++ concentrations in ≈100 cells. […] Plot generated from averaged peak ΔCa++ concentration of 75 cells per data-point.
# human TRPV1 = biological target: T9, human TRPV1 (Homo sapiens, UniProt Q8NER1); experiment: Ca2+ signal in N2a cells transfected with human TRPV1 (capsaicin); assay type: cell-based; conditions: 5 μM capsaicin stimulation
# T9 construct: expressed in transfected cells; host or cells: N2a cells
# Protocol: as §2
# N2a cells = experiment: Cell viability (resazurin) of N2a cells; assay type: cell-based; conditions: 48 h; for cellular toxicity vs inhibitory potency against TRPV4/TRPA1, factor: mouse
# Protocol: FIGS. 30A-30B: Cellular toxicity studies of compounds 16-8 and 16-19. N2a cells were subjected to increasing concentrations of compounds 16-8 and 16-19, resulting cell viability was analyzed for the next 48 h. (FIG. 30A) Time course of cell viability in the presence of various concentrations of 16-8. […] Representative result of 2 independent experiments.
# N2a cells were cultured in 96 well plates for 24-48 h. Cell viability studies relied on metabolic capability monitored with the indicator dye resazurin. Its reduction to resorufin (indicated by color change dark blue to pink) was monitored over time. Changes in absorbance at λ=570 nm were recorded using a microplate reader (Molecular Devices). […] Eight replicate cultures per experimental point were studied.
# T8 sequence (Q9ERZ8 whole entry): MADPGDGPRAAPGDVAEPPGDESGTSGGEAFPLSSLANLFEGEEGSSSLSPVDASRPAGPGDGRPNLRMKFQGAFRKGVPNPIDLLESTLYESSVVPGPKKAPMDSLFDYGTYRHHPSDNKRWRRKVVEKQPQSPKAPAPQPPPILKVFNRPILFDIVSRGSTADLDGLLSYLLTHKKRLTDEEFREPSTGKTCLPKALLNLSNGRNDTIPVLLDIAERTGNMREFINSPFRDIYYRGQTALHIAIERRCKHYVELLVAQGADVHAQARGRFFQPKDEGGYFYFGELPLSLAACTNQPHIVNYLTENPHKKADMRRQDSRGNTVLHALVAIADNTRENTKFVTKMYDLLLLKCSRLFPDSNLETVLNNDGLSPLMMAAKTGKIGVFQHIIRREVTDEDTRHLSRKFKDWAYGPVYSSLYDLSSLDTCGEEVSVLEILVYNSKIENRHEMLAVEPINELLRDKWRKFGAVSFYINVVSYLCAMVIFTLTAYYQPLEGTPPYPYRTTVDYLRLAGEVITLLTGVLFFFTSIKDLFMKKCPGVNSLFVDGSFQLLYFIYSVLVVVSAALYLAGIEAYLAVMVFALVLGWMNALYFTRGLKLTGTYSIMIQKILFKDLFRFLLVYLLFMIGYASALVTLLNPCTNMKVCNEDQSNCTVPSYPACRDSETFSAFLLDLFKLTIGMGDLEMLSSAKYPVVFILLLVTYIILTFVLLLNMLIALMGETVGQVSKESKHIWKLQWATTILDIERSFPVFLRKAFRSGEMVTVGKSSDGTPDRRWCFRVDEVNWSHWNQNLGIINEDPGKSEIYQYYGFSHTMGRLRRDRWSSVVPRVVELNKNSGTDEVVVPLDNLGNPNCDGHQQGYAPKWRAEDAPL
# TRPV4, sequence (Q9HBA0 whole entry): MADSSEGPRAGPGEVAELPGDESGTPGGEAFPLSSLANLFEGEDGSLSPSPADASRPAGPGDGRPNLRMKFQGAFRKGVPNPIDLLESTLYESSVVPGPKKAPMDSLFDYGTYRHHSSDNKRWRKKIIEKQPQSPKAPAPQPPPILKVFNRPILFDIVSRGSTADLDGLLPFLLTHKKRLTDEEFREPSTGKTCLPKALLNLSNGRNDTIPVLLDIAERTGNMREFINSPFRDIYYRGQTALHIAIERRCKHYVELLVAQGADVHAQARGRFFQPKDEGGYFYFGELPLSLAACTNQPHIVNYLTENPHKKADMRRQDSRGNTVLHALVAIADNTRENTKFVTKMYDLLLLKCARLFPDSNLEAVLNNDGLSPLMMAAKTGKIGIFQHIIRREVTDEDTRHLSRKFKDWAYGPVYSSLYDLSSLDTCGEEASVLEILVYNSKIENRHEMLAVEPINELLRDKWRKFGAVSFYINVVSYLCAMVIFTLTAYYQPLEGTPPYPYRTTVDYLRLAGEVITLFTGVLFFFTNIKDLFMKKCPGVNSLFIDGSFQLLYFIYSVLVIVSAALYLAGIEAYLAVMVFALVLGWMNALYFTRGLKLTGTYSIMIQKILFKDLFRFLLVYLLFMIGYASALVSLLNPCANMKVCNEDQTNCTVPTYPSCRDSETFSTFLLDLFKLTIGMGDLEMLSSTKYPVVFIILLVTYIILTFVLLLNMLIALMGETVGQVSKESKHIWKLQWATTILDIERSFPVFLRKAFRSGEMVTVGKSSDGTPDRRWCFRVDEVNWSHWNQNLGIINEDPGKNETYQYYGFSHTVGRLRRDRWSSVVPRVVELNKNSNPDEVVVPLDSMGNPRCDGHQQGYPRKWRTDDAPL
# T5 sequence (Q8BLA8 whole entry): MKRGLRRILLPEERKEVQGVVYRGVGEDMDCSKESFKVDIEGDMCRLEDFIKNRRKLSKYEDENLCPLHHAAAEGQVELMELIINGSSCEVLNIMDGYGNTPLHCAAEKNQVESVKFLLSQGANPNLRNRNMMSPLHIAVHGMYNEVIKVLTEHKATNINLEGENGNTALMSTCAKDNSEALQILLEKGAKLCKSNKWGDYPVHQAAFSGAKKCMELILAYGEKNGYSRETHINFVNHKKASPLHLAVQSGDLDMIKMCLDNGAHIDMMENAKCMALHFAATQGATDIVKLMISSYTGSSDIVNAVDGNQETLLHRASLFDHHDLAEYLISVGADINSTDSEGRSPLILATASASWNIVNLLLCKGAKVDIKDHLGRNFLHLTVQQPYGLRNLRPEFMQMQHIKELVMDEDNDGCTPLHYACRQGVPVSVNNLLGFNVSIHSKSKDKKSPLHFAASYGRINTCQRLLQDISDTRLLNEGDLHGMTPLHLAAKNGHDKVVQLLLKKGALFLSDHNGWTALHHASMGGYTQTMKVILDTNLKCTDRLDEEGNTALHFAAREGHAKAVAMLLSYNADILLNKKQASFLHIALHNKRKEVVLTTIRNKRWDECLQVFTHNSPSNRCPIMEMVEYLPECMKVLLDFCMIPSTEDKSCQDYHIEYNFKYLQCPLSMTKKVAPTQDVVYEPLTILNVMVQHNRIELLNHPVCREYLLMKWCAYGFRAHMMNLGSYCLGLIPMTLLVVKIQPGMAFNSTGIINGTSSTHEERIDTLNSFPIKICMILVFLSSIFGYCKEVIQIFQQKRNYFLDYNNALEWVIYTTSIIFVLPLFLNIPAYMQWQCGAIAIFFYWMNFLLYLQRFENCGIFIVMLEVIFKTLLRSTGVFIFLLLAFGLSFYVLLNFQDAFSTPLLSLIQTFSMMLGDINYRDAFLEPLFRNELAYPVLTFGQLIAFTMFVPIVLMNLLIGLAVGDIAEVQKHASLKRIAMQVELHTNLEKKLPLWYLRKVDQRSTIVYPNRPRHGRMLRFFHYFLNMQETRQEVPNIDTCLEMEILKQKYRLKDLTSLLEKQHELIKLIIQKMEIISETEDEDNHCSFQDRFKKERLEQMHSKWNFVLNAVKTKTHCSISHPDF
# T7 sequence (O75762 whole entry): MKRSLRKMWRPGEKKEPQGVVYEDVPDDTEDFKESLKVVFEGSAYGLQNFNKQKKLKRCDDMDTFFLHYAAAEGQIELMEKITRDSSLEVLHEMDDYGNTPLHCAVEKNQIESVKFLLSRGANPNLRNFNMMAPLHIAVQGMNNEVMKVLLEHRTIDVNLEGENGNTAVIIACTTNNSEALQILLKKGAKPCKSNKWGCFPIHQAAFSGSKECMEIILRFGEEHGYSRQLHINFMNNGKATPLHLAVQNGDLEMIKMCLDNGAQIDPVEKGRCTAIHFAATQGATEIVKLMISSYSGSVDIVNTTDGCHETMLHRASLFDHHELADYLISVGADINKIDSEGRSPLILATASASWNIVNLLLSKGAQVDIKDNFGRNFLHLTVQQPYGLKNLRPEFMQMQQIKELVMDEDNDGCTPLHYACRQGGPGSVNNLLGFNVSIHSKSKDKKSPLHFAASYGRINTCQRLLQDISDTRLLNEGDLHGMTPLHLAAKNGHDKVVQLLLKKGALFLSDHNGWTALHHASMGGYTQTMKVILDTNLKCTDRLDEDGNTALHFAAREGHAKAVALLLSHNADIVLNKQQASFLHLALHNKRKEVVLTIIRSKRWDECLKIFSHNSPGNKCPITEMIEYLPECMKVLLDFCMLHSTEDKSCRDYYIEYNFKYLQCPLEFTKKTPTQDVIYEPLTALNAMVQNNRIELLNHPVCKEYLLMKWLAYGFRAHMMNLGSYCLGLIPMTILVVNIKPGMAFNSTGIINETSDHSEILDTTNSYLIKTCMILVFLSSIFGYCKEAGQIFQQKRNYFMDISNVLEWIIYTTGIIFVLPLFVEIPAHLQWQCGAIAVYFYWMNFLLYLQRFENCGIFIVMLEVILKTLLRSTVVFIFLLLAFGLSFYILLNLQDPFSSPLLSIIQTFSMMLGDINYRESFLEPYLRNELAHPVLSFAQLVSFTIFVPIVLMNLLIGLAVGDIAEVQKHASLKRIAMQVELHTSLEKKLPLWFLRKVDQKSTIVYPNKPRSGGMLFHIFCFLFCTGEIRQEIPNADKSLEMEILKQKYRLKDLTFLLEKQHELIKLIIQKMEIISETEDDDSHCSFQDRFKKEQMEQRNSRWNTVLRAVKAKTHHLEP
# T3 sequence (Q9Y5S1 whole entry): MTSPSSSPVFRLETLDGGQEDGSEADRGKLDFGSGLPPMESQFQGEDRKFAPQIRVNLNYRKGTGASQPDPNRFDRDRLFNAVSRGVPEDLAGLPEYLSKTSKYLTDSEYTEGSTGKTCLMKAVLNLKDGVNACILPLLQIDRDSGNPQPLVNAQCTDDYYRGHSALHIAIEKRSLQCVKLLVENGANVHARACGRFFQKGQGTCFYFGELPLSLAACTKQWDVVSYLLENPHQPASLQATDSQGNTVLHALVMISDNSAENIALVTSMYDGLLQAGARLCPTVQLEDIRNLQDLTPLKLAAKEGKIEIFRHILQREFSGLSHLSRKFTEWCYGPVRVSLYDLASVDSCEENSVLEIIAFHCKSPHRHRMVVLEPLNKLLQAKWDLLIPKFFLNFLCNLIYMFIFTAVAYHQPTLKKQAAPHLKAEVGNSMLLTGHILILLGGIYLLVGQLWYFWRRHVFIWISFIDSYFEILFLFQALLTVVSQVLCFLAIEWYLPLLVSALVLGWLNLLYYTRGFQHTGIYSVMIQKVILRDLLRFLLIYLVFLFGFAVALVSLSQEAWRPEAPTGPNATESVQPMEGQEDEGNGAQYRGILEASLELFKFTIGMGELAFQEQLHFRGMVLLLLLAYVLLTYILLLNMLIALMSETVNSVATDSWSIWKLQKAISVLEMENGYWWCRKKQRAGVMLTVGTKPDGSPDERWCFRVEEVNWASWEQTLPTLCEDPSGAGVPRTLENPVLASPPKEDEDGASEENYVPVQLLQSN
Structure (SMILES),"nocifensive behavior, in particular second phase [1]",inhibition of TRPV2 (TRPV2),inhibition of TRPV1 (TRPV1),"effect on Ca2+ transience, TRPV2 (human TRPV2)",heart rate (EKG) [2],alanine-amino-transferase (ALT) [2],serum creatinin [2],"effect on Ca2+ transience, TRPV3 (human TRPV3)",IC50 (TRPA1 (mouse)),inhibition of TRPV3 (TRPV3),inhibitory activity against human TRPA1 (human TRPA1),inhibition of TRPV4-mediated calcium influx (peak calcium concentration) (TRPV4),IC50 (TRPV4 (rat)),"inhibition of TRPV4-mediated Ca++ influx, first round screening (TRPV4 (rat))","effect on Ca2+ transience, TRPV1 (human TRPV1)",cell viability time course at increasing concentrations (N2a cells),"cellular toxicity vs inhibitory potency against TRPV4/TRPA1, factor (N2a cells)","increased potency versus parental compound GSK205 (TRPV4 (rat); from IC50 values, rat TRPV4 in N2a cells)"
CN(CCc1ccc(Nc2nc(-c3ccccc3)cs2)cc1)Cc1ccccc1 [Compound 16-8],significant attenuation,did not inhibit,did not inhibit,not affected,did not detect differences and changes in heart rate,not significantly elevated,not significantly elevated,not affected,410 nM and 430 nM,did not inhibit,showed inhibitory activity,most potent,450 nM,virtually eliminated Ca++ influx,not affected,clear reduction at 40 and 80 μM,50-100,
CCN(CCc1ccc(Nc2nc(-c3ccccc3)cs2)cc1)Cc1ccccc1 [Compound 16-19],significant attenuation,did not inhibit,did not inhibit,not affected,did not detect differences and changes in heart rate,not significantly elevated,not significantly elevated,not affected,430 nM and 410 nM,did not inhibit,showed inhibitory activity,did not show enhanced inhibition over 16-8,590 nM and 810 nM,virtually eliminated Ca++ influx,not affected,,50-100,~8 fold
CN(CCc1ccc(Nc2nc(-c3cccnc3)cs2)cc1)Cc1ccccc1 [GSK205],lack of effect,,,,,,,,5560 ± 400 nM,,did not inhibit TRPA1 activity,very low potency,4190 nM,,,,,
